Laboratory results published in US12612413B2, “Heteroaryl compounds as inhibitors of programmed necrosis pathway, composition and method using the same” (ACCRO BIOSCIENCE INC., priority 2020, dated 2026).

Key:
Assay type in all cases: cell-based
[1] = tested on: L929 cells; test: L929 cell viability (necroptosis) assay; details: Mus musculus, TNF-α (40 ng/mL), z-VAD (20 μM), 16 h
Method: (§1) L929 cells were added to 96-well plate. The compounds at different concentrations (0.3, 1.0, 3.0, 10.0, 20.0 μM) were then preprocessed for two hours. TNF-α (40 ng/mL), and z-VAD (20 μM) were added, and the mixture was incubated for 16 h. Quantitative analysis of cell survival was conducted. DMSO pretreatment was used as a negative control. Concentration for 50% of maximal effect was calculated according to the curve of the survival rate measured at different concentrations. FIG. 3 depicts the EC50 curves of compound A3.

[2] = tested on: HT-29 cells; test: HT-29 cell viability (necroptosis) assay; details: Homo sapiens, TNF-α (40 ng/mL), Smac mimetic (100 nM), z-VAD (20 μM), 40 h, from survival rate curve
Method: Human colon cancer HT-29 cells were used in a necroptosis assay. For this assay, HT-29 cells were added to 96-well plates. The compounds at different concentrations (0.3, 1.0, 3.0, 10.0, 20.0 μM) were then preprocessed for two hours. TNF-α (40 ng/mL), Smac mimetic (100 nM) and z-VAD (20 μM) were added, and the mixture was incubated for 40 h. Quantitative analysis of cell viability was conducted. DMSO pretreatment group was used as a negative control. Concentration for 50% of maximal effect was calculated according to the curve of the survival rate measured at different concentrations. FIG. 1 depicts the EC50 curves of compound A16.

[3] = tested on: MEF cells; test: MEF cell viability (necroptosis) assay; details: Mus musculus, TNF-α (40 ng/mL), Smac mimetic (100 nM), z-VAD (20 μM), 12 h
Method: as §1, with “MEF cells” for “L929 cells”, “ng/mL), Smac mimetic (100 nM)” for “ng/mL),”, “for 12” for “for 16”, “pretreatment group” for “pretreatment”, “FIG. 2” for “FIG. 3”, “compound A9.” for “compound A3.”

SMILES | EC50 [1] [nM] | EC50 [2] [nM] | EC50 [3] [nM]
O=S1(=O)CCc2cc3nccc(Nc4ccc5scnc5c4)c3cc21 [Compound B1, 8-(benzo[d]thiazol-5-ylamino)-2,3-dihydrothieno[2,3-g]quinoline 1,1-dioxide] | 64000 | 1740 | 
O=S1(=O)C=C(C2CC2)c2cc3nccc(Nc4ccc5scnc5c4)c3cc21 [Compound A9] | 210 | 85 | 240
CC1=CS(=O)(=O)c2cc3c(Nc4ccc5scnc5c4)ccnc3cc21 [Compound A7] | 240 | 380 | 
CC1=C(OCC2CC2)c2cc3nccc(Nc4ccc5scnc5c4)c3cc2S1(=O)=O [Compound A21] | 8730 | 310 | 440
CCOC1=CS(=O)(=O)c2cc3c(Nc4ccc5scnc5c4)ccnc3cc21 [Compound A13] | 780 | 430 | 200
O=S1(=O)CC2(OCCO2)c2cc3nccc(Nc4ccc5scnc5c4)c3cc21 [Compound B2, 8-(benzo[d]thiazol-5-ylamino)-2H-spiro[thieno[2,3-g]quinoline-3,2′-[1,3]dioxolane]1,1-dioxide] | 430 | 300 | 435
CCOC1=C(C)S(=O)(=O)c2cc3c(Nc4ccc5scnc5c4)ccnc3cc21 [Compound A20] | 420 | 280 | 310
